These results are taken from the NIST ThermoML archive (doi:10.1021/je300143a).

Numbers after ± are expanded uncertainties.

For data set [1] the following is noted: Crystal; DTA.
The nature of data set [2]: Molar enthalpy of transition or fusion. The following applies: Crystal; DSC.

On to `CC(=O)c1ccc(NC2=NCCC3(CCCCC3)S2)cc1`, for which the Normal melting temperature in data set [1] was determined as 163.5 ± 0.5 °C. Moreover, in data set [2], the “Molar enthalpy of transition or fusion” value was found to be 7.77 ± 0.287 kcal/mol.
For `CC(C)c1ccc(NC2=NCCC3(CCCCC3)S2)cc1`, the Normal melting temperature in data set [1] was 139.6 ± 0.5 °C. In addition, in data set [2], the “Molar enthalpy of transition or fusion” value is 6.98 ± 0.287 kcal/mol.
Regarding `Cc1ccc(NC2=NCCC3(CCCCC3)S2)cc1Cl`, in data set [1], the Normal melting temperature came out at 149.2 ± 0.5 °C. Besides, the “Molar enthalpy of transition or fusion” value in data set [2] was 7.93 ± 0.287 kcal/mol.
In the case of `FC(F)(F)c1ccc(NC2=NCCC3(CCCCC3)S2)cc1`, the Normal melting temperature in data set [1] came out at 149.7 ± 0.5 °C. Moreover, in data set [2], the “Molar enthalpy of transition or fusion” value is 7.86 ± 0.287 kcal/mol.
For the compound `O=C(NC1=NCCC2(CCCCC2)S1)c1ccccc1` [N-(1-thia-3-azaspiro[5.5]undec-2-en-2-yl)benzamide], in data set [1], the Normal melting temperature was found to be 130.2 ± 0.5 °C. Further, the “Molar enthalpy of transition or fusion” value in data set [2] is 6.67 ± 0.287 kcal/mol.
The like results for `Brc1ccc(NC2=NCCC3(CCCCC3)S2)cc1` [N-(4-bromophenyl)-1-thia-3-azaspiro[5.5]undec-2-en-2-amine] were, in that order, 175.2 ± 0.5 °C and 10.6 ± 0.311 kcal/mol.
The like results for `Clc1ccc(NC2=NCCC3(CCCCC3)S2)cc1` [N-(4-chlorophenyl)-1-thia-3-azaspiro[5.5]undec-2-en-2-amine] were, in that order, 162.6 ± 0.5 °C and 6.67 ± 0.287 kcal/mol.
`CCc1ccc(NC2=NCCC3(CCCCC3)S2)cc1` [N-(4-ethylphenyl)-1-thia-3-azaspiro[5.5]undec-2-en-2-amine]: the Normal melting temperature in data set [1] worked out at 139.4 ± 0.5 °C. Besides, in data set [2], the “Molar enthalpy of transition or fusion” value was 10.2 ± 0.311 kcal/mol.
The like results for `COc1ccc(NC2=NCCC3(CCCCC3)S2)cc1` [N-(4-methoxyphenyl)-1-thia-3-azaspiro[5.5]undec-2-en-2-amine] were, in that order, 115.4 ± 0.5 °C and 7 ± 0.287 kcal/mol.
On to `Cc1ccc(NC2=NCCC3(CCCCC3)S2)cc1` [N-(4-methylphenyl)-1-thia-3-azaspiro[5.5]undec-2-en-2-amine], for which the Normal melting temperature in data set [1] worked out at 108.2 ± 0.5 °C. Also, the “Molar enthalpy of transition or fusion” value in data set [2] turned out to be 10 ± 0.311 kcal/mol.
For the compound `c1ccc(NC2=NCCC3(CCCCC3)S2)cc1` [N-phenyl-1-thia-3-azaspiro[5.5]undec-2-en-2-amine], the Normal melting temperature in data set [1] worked out at 113.4 ± 0.5 °C. Further, in data set [2], the “Molar enthalpy of transition or fusion” value turned out to be 5.16 ± 0.263 kcal/mol.
